Data taken from patent US20260364068A1, “ANTIVIRAL USE OF HETEROARYL DERIVATIVE COMPOUND” (UIF (University Industry Foundation), Yonsei University, priority 2022, published 2026).

Assay: Cell viability measurement (MTS), Calu-3 cells
Type: cell-based
Conditions: human
Protocol: Experimental Example 3: Cell Viability Measurement
Vero cell line (VERO01WCB-1201, Ministry of Food and Drug Safety, Republic of Korea), Calu-3 cell line (KCLB #30055, Korea Cell Line Bank (KCLB), Republic of Korea), CellTiter 96® AQueous One Solution Cell Proliferation Assay kit (Promega, cat. #G3582), and Infinite M200 microplate reader (Tecan).
Calu-3 cells were cultured at 37 °C and 5% CO2 in MEM medium supplemented with 10% fetal bovine serum, 2.2 g/L sodium bicarbonate, 1% 100 units/mL penicillin, and 100 μg/mL streptomycin.
Vero cells or Calu-3 cells were seeded in 96-well microplates and cultured for 24 hours until the cell confluency reached 20%. After the incubation, compounds were treated in DMSO at concentrations (1, 3, and 10 μM) to reach 0.5% v/v in each well, and reacted at 37 °C for 48 hours. Into each well of the incubated 96-well microplate, 3-(4,5-dimethylthiazol-2-yl)-5-(3-carboxymethoxyphenyl)-2-(4-sulfophenyl)-2H-tetrazolium salt (MTS) assay solution [CellTiter 96® AQueous One Solution Cell Proliferation Assay kit (Promega)] mixed with DMEM medium at a ratio of 1:5, was dispensed at 100 μL/well and incubated at 37 °C for 1 hour. The 490 nm and 690 nm absorbance was then measured using an Infinite M200 instrument.
The cell viability (also, referred to as cell survival rate) (%) by compound treatment was calculated using the following analysis method. The 690 nm background absorbance value was subtracted from the measured 490 nm absorbance value. Then, to obtain the cell viability of each test group, the viability of the DMSO-treated group that was not treated with the compound was set to 100% and then the relative viability 1 of each compound was calculated. Two to six repeated tests were performed to obtain the results, and the mean values of the results were categorized into the following ranges and shown in Table 5 below (A: 80% survived, B: 50-80% survived, N/A: not tested)

Compound | viability at 48 h, 1 µM [%] | viability at 48 h, 3 µM [%] | viability at 48 h, 10 µM [%]
c1ccc(-c2ccc(Nc3cccc(-c4nc5ccccc5[nH]4)c3)cc2)cc1 [Example 19, N-[3-(1H-benzo[d]imidazol-2-yl)phenyl]-[1,1′-biphenyl]-4-amine] | 50 to 80 | 50 to 80 | 
c1cc(Nc2ccc(-c3ccncc3)cc2)cc(-c2nc3ccccc3[nH]2)c1 [Example 33, N-[3-(1H-benzo[d]imidazol-2-yl)phenyl]-4-(pyridin-4-yl)aniline] | 50 to 80 |  | 
c1cc(Nc2ncc(-c3cccnn3)cn2)cc(-c2nc3cnccc3[nH]2)c1 [Example 49, N-(3-{1H-imidazolo[4,5-c]pyridin-2-yl}phenyl)-5-(pyridazin-3-yl)pyrimidin-2-amine] | > 80 | > 80 | > 80
c1cc(Nc2ncc(-c3cccnn3)cn2)cc(-c2nc3ccccc3[nH]2)c1 [Example 53, N-[3-(1H-benzo[d]imidazol-2-yl)phenyl]-5-(pyridazin-3-yl)pyrimidin-2-amine] | > 80 | 50 to 80 | 50 to 80
c1cc(Nc2ccc(-c3ccncn3)cn2)cc(-c2nc3ccccc3[nH]2)c1 [Example 68, N-[3-(1H-benzo[d]imidazol-2-yl)phenyl]-5-(pyrimidin-4-yl)pyridin-2-amine] | 50 to 80 |  | 
c1cnc(-c2ccc(Nc3cccc(-c4nc5ccccc5[nH]4)c3)nc2)nc1 [Example 69, N-(3-(1H-benzo[d]imidazol-2-yl)phenyl)-5-(pyrimidin-2-yl)pyridin-2-amine] | > 80 |  | 
c1cc(Nc2ncc(-c3cncnc3)cn2)cc(-c2nc3ccccc3[nH]2)c1 [Example 70, N-[3-(1H-benzo[d]imidazol-2-yl)phenyl]-[5,5′-bipyrimidin]-2-amine] | > 80 | 50 to 80 | 
c1cnc(-c2cnc(Nc3cccc(-c4nc5ccccc5[nH]4)c3)nc2)nc1 [Example 71, N-[3-(1H-benzo[d]imidazol-2-yl)phenyl]-[2,5′-bipyrimidin]-2′-amine] | > 80 | 50 to 80 | 
c1ccc(-c2ccc(Nc3cccc(-c4nc5ccccc5[nH]4)c3)cn2)cc1 [Example 80, N-[3-(1H-benzo[d]imidazol-2-yl)phenyl]-6-phenyl-pyridin-3-amine] | > 80 | 50 to 80 | 
Fc1ccc2nc(-c3cccc(Nc4ccc(-c5ccccn5)cc4)c3)[nH]c2c1 [Example 92, 3-(6-fluoro-1H-benzo[d]imidazol-2-yl)-N-[4-(2-pyridyl)phenyl]aniline] | 50 to 80 |  | 
c1cc(Nc2ccc(-c3ccnnc3)cc2)cc(-c2nc3ccccc3[nH]2)c1 [Example 94, 3-(1H-benzo[d]imidazol-2-yl)-N-(4-pyridazin-4-ylphenyl)aniline] | 50 to 80 |  | 
Fc1cc2nc(-c3cccc(Nc4ccc(-c5ccncn5)cc4)c3)[nH]c2cc1F [Example 95, 3-(5,6-difluoro-1H-benzo[d]imidazol-2-yl)-N-(4-pyrimidin-4-ylphenyl)aniline] | 50 to 80 |  | 
c1cc(Nc2ccc(C3CCCCC3)cc2)cc(-c2nc3ccccc3[nH]2)c1 [Example 97, 3-(1H-benzo[d]imidazol-2-yl)-N-(4-cyclohexylphenyl)aniline] | > 80 | 50 to 80 | 
FC(F)(F)c1ccc2nc(-c3cccc(Nc4ccc(-c5ccccn5)cc4)c3)[nH]c2c1 [Example 98, N-[4-(2-pyridyl)phenyl]-3-[6-(trifluoromethyl)-1H-benzo[d]imidazol-2-yl]aniline] | 50 to 80 |  | 
Fc1cc2nc(-c3cccc(Nc4ncc(-c5cccnn5)cn4)c3)[nH]c2cc1F [Example 99, N-[3-(5,6-difluoro-1H-benzo[d]imidazol-2-yl)phenyl]-5-pyridazin-3-yl-pyrimidin-2-amine] | > 80 | > 80 | > 80
FC(F)(F)c1ccc2nc(-c3cccc(Nc4ccc(-c5ncccn5)cn4)c3)[nH]c2c1 [Example 100, 5-pyrimidin-2-yl-N-[3-[6-(trifluoromethyl)-1H-benzo[d]imidazol-2-yl]phenyl]pyridin-2-amine] | 50 to 80 |  | 
Cc1cccc2nc(-c3cccc(Nc4ccc(-c5cccnn5)cc4)c3)[nH]c12 [Example 101, 3-(7-methyl-1H-benzo[d]imidazol-2-yl)-N-(4-pyridazin-3-ylphenyl)aniline] | > 80 |  | 
FC(F)(F)c1cc2[nH]c(-c3cccc(Nc4ncc(-c5cccnn5)cn4)c3)nc2cn1 [Example 103, 5-pyridazin-3-yl-N-[3-[6-(trifluoromethyl)-1H-imidazo[4,5-c]pyridin-2-yl]phenyl]pyrimidin-2-amine] | > 80 | > 80 | > 80
Fc1cc2[nH]c(-c3cccc(Nc4ccc(-c5cccnn5)cc4)c3)nc2cc1C(F)(F)F [Example 104, 3-[6-fluoro-5-(trifluoromethyl)-1H-benzo[d]imidazol-2-yl]-N-(4-pyridazin-3-ylphenyl)aniline] | 50 to 80 | 50 to 80 | 
CC(C)(C)c1ccc2nc(-c3cccc(Nc4ccc(-c5cccnn5)cc4)c3)[nH]c2c1 [Example 107, 3-(6-tert-butyl-1H-benzo[d]imidazol-2-yl)-N-(4-pyridazin-3-ylphenyl)aniline] | > 80 |  | 
COc1ccc2nc(-c3cccc(Nc4ncc(-c5cccnn5)cn4)c3)[nH]c2c1 [Example 108, N-[3-(6-methoxy-1H-benzo[d]imidazol-2-yl)phenyl]-5-pyridazin-3-yl-pyrimidin-2-amine] | > 80 | > 80 | > 80
FC(F)(F)Oc1ccc2nc(-c3cccc(Nc4ccc(-c5ccncn5)cc4)c3)[nH]c2c1 [Example 109, N-(4-pyrimidin-4-ylphenyl)-3-[6-(trifluoromethoxy)-1H-benzo[d]imidazol-2-yl]aniline] | 50 to 80 |  | 
FC(F)(F)Oc1ccc2nc(-c3cccc(Nc4ncc(-c5ccccn5)cn4)c3)[nH]c2c1 [Example 118, 5-(2-pyridyl)-N-[3-[6-(trifluoromethoxy)-1H-benzo[d]imidazol-2-yl]phenyl]pyrimidin-2-amine] |  |  | 50 to 80
FC(F)(F)Oc1cc2nc(-c3cccc(Nc4ncc(-c5cccnn5)cn4)c3)[nH]c2cc1Cl [Example 120, N-[3-[6-chloro-5-(trifluoromethoxy)-1H-benzo[d]imidazol-2-yl]phenyl]-5-pyridazin-3-yl-pyrimidin-2-amine] |  |  | > 80
Fc1cc2[nH]c(-c3cccc(Nc4ncc(-c5ccccn5)cn4)c3)nc2cn1 [Example 286, N-(3-(6-fluoro-1H-imidazo[4,5-c]pyridin-2-yl)phenyl)-5-(pyridin-2-yl)pyrimidin-2-amine] |  |  | > 80
FC(F)(F)Oc1ccc2nc(-c3cccc(Nc4ncc(-c5cccnn5)cn4)c3)[nH]c2c1 [Example 295, 5-(pyridazin-3-yl)-N-(3-(6-(trifluoromethoxy)-1H-benzo[d]imidazol-2-yl)phenyl)pyrimidin-2-amine] |  |  | > 80
Fc1cc2nc(-c3cccc(Nc4cnc(-c5ccncn5)cn4)c3)[nH]c2cc1F [Example 297, N-(3-(5,6-difluoro-1H-benzo[d]imidazol-2-yl)phenyl)-5-(pyrimidin-4-yl)pyrazin-2-amine] |  |  | > 80
